In patent publication US10654834B2 (Venenum Biodesign, LLC, priority 2016, dated 2020):

Assays:
human TGR5 receptor = target: T1, human TGR5 receptor (Homo sapiens, UniProt Q8TDU6); test: Human TGR5 cAMP production assay (hTGR5-CHO cells, DiscoveRx cAMP XS+ kit); assay type: cell-based; details: luminescent cAMP assay, read-out: Human TGR5 Lum. cAMP Activity (EC50)
T1 construct: host or cells: CHO-K1 (hTGR5-CHO)
T1 sequence (Q8TDU6 1-330): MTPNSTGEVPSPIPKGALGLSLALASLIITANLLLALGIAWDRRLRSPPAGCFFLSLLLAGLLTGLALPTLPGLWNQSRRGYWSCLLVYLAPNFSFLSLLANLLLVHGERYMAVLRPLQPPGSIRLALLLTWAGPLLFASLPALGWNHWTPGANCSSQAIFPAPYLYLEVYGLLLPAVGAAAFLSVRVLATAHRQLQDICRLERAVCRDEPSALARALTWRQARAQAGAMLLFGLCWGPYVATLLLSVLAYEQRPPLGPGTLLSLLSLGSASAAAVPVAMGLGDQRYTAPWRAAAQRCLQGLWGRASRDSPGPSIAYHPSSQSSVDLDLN
Summary of the method: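 EC50 values come from luminescent enzyme-complementation cAMP detection, read after overnight incubation. Beforehand, hTGR5-expressing CHO-K1 cells with IBMX and anti-cAMP antibody were exposed 1 h at room temperature to serially diluted (half-log) compounds.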

mouse TGR5 receptor = target: T2, mouse TGR5 receptor (Mus musculus, UniProt Q80SS6); test: Mouse TGR5 luminescent cAMP production assay (HEK293-EBNA cells, DiscoveRx cAMP XS+ kit); assay type: cell-based; details: HEK293-EBNA cells overexpressing mouse TGR5, luminescent cAMP assay; read-out: Mouse TGR5 Lum. cAMP Activity (EC50)
T2 construct: host or cells: HEK293-EBNA (293 c18, ATCC CRL10852)
T2 sequence (Q80SS6 1-329): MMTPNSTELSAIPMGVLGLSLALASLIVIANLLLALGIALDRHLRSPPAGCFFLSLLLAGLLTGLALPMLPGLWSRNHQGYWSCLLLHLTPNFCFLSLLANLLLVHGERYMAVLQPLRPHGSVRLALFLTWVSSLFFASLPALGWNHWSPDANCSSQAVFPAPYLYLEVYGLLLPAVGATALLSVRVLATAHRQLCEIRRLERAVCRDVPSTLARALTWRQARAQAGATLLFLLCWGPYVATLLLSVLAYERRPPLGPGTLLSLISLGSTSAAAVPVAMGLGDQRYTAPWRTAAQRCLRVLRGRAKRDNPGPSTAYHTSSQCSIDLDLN
Experimental: Mouse TGR5 cAMP Production Assay
Compounds of the present invention were evaluated for their ability to induce cAMP production in HEK-EBNA cells overexpressing the mouse TGR5 receptor. Human embryonic kidney cells (HEK293-EBNA) stably expressing mouse TGR5 receptor were established using the following procedure. Specifically, a commercially obtained gene encoding mouse TGR5 (accession number BC116914) from Thermo Scientific (Waltham, Mass.) was cloned into an episomal expression vector. The resulting expression plasmid was then transfected into 293 c18 (ATCC® CRL10852™) cells, which express the Epstein-Barr virus nuclear antigen EBNA1 and can support the replication of episomal vectors. Selection for the plasmid was maintained with Hygromycin B. Cells were cultured and maintained in DMEM (Sigma; cat #6429) supplemented with 10% Fetal Bovine Serum, 1% penicillin/streptomycin, 2 mM L-alanine L-glutamine (GlutaMax), and 250 μg/mL Hygromycin.
We developed two cAMP production assays.
(i) Luminescent cAMP Production Assay
In this first cAMP production assay, the cAMP production was measured using DiscoveRx's cAMP XS+ kit following the manufacturer's recommended protocol. Briefly, HEK293-EBNA cells stably overexpressing mouse TGR5 were harvested using non-enzymatic cell dissociation buffer (Sigma-Aldrich, St. Louis, Mo.), spun down, then resuspended in serum-free DMEM with 500 μM IBMX at a density of 1.25×10^6 cells/mL. 500 μL of cAMP antibody solution was added to 500 μL of cell suspension and incubated at room temperature for 20 min.
Test compounds were serially diluted (half-log dilutions) in DMSO and then further diluted 1:50 in PBS, 10 mM HEPES buffer. 2 μL of serially diluted compound was added to a 384-well low volume plate (Greiner cat #784075) and centrifuged briefly. 2 μl of the cell/cAMP antibody mixture was then added to each compound-containing well and allowed to incubate at room temperature for one (1) hour. Following incubation, the XS+ kits' ED/Lysis/CL Substrate Working Solution was prepared following the manufacturer's recommended protocol and 4 μL was added to each well of the plate. The plate was then incubated for one (1) hour at room temperature. Following incubation, 4 μL of (Enzyme Acceptor) EA reagent was added to the plate and allowed to incubate overnight at room temperature. Luminescent signal was then detected using the Viewlux instrument (PerkinElmer, Waltham, Mass.).
In Table 52, EC50 values for both human and mouse cells were determined according to the TGR5 cAMP assays described above. […]

| Compound | EC50 (human TGR5 receptor) [nM] | EC50 (mouse TGR5 receptor) [nM] |
| --- | --- | --- |
| N#Cc1ccc(CCNC(=O)[C@@H]2CCCN2c2cc(-c3ccc(C#N)cc3)nc(C(F)(F)F)n2)cc1 [Compound 145, (S)-N-(4-cyanophenethyl)-1-(6-(4-cyanophenyl)-2-(trifluoromethyl)pyrimidin-4-yl)pyrrolidine-2-carboxamide] | 100 to 999 | < 100 |
| N#Cc1ccc(CCNC(=O)[C@@H]2CCCN2c2cc(-c3ccco3)nc(C(F)(F)F)n2)cc1 [Compound 167, (S)-N-(4-cyanophenethyl)-1-(6-(furan-2-yl)-2-(trifluoromethyl)pyrimidin-4-yl)pyrrolidine-2-carboxamide] | 1000 to 30000 | 100 to 999 |
| N#Cc1ccc(CCNC(=O)[C@@H]2CCCN(c3cc(OC4CCOCC4)nc(C(F)(F)F)n3)C2)cc1 [Compound 334] | < 100 | < 100 |
| CNc1cc(N2CCC[C@@H](C(=O)NCCc3ccc(C(F)(F)F)cc3)C2)nc(C(F)(F)F)n1 [Compound 321, (R)-1-(6-(methylamino)-2-(trifluoromethyl)pyrimidin-4-yl)-N-(4-(trifluoromethyl)phenethyl)piperidine-3-carboxamide] | 100 to 999 | 100 to 999 |
| COc1ccc(-c2cc(N3CCC[C@H]3C(=O)NCCc3ccc(C#N)cc3)nc(C(F)(F)F)n2)cc1OC [Compound 149, (S)-N-(4-cyanophenethyl)-1-(6-(3,4-dimethoxyphenyl)-2-(trifluoromethyl)pyrimidin-4-yl)pyrrolidine-2-carboxamide] | 100 to 999 | 100 to 999 |
| CCCCCCc1ccc(-c2cc(N3CCC[C@H]3C(=O)NCCc3ccc(C#N)cc3)nc(C(F)(F)F)n2)s1 [Compound 139, (S)—N-(4-cyanophenethyl)-1-(6-(5-hexylthiophen-2-yl)-2-(trifluoromethyl)pyrimidin-4-yl)pyrrolidine-2-carboxamide] | 1000 to 30000 | 1000 to 30000 |
| Nc1cc(N2CCC[C@@H](C(=O)NCCc3ccc(C(F)(F)F)cc3)C2)nc(C(F)(F)F)n1 [Compound 320, (R)-1-(6-amino-2-(trifluoromethyl)pyrimidin-4-yl)-N-(4-(trifluoromethyl)phenethyl)piperidine-3-carboxamide] | 100 to 999 | 100 to 999 |
| N#Cc1ccc(CCNC(=O)[C@@H]2CCCN2c2cc(-c3ccc(CN)cc3)nc(C(F)(F)F)n2)cc1 [Compound 185, (S)-1-(6-(4-(aminomethyl)phenyl)-2-(trifluoromethyl)pyrimidin-4-yl)-N-(4-cyanophenethyl)pyrrolidine-2-carboxamide] | 100 to 999 | 100 to 999 |
| N#Cc1ccc(CCNC(=O)[C@@H]2CCCN2c2cc(-c3ccc(S(=O)(=O)N4CCOCC4)cc3)nc(C(F)(F)F)n2)cc1 [Compound 154, (S)-N-(4-cyanophenethyl)-1-(6-(4-(morpholinosulfonyl)phenyl)-2-(trifluoromethyl)pyrimidin-4-yl)pyrrolidine-2-carboxamide] | 1000 to 30000 | 100 to 999 |
| COCCOc1cc(N2CCC[C@H]2C(=O)NCCc2ccc(C(F)(F)F)cc2)nc(C(F)(F)F)n1 [Compound 42, (S)-1-(6-(2-methoxyethoxy)-2-(trifluoromethyl)pyrimidin-4-yl)-N-(4-(trifluoromethyl)phenethyl)pyrrolidine-2-carboxamide] | 100 to 999 | 100 to 999 |
| N#Cc1ccc(CCNC(=O)[C@@H]2CCCN2c2cc(NCc3ccncc3)nc(C(F)(F)F)n2)cc1 [Compound 13] | 100 to 999 | < 100 |
| N#Cc1ccc(CCNC(=O)[C@@H]2CCCN2c2cc(-c3ccoc3)nc(C(F)(F)F)n2)cc1 [Compound 164, (S)-N-(4-cyanophenethyl)-1-(6-(furan-3-yl)-2-(trifluoromethyl)pyrimidin-4-yl)pyrrolidine-2-carboxamide] | 1000 to 30000 | 100 to 999 |
| Cc1ccc(-c2cc(N3CCC[C@H]3C(=O)NCCc3ccc(C#N)cc3)nc(C(F)(F)F)n2)cc1 [Compound 143, (S)-N-(4-cyanophenethyl)-1-(6-(p-tolyl)-2-(trifluoromethyl)pyrimidin-4-yl)pyrrolidine-2-carboxamide] | 100 to 999 | 100 to 999 |

Second part, the compound after the results:

| EC50 (human TGR5 receptor) [nM] | EC50 (mouse TGR5 receptor) [nM] | Compound |
| --- | --- | --- |
| 100 to 999 | < 100 | N#Cc1ccc(CCNC(=O)C2CCN2c2cc(OC3CCOCC3)nc(C(F)(F)F)n2)cc1 (centres unmarked) [Compound 244, N-(4-cyanophenethyl)-1-(6-((tetra-hydro-2H-pyran-4-yl)oxy)-2-(trifluoromethyl)pyrimidin-4-yl)azetidine-2-carboxamide] |
| 100 to 999 | < 100 | N#Cc1ccc(CCNC(=O)C2CCN2c2cc(-c3ccncc3)nc(C(F)(F)F)n2)cc1 (centres unmarked) [Compound 307, N-(4-cyanophenethyl)-1-(6-(pyridin-4-yl)-2-(trifluoromethyl)pyrimidin-4-yl)azetidine-2-carboxamide] |
| 100 to 999 | < 100 | CC(=O)NCC1CCN(c2cc(N3CCC[C@H]3C(=O)NCCc3ccc(C#N)cc3)nc(C(F)(F)F)n2)CC1 [Compound 52, (S)-1-(6-(4-(acetamidomethyl)piperidin-1-yl)-2-(trifluoromethyl)pyrimidin-4-yl)-N-(4-cyanophenethyl)pyrrolidine-2-carboxamide] |
| 100 to 999 | 100 to 999 | CCOc1ccc(-c2cc(N3CCC[C@H]3C(=O)NCCc3ccc(C#N)cc3)nc(C(F)(F)F)n2)cc1 [Compound 151, (S)-N-(4-cyanophenethyl)-1-(6-(4-ethoxyphenyl)-2-(trifluoromethyl)pyrimidin-4-yl)pyrrolidine-2-carboxamide] |
| 1000 to 30000 | 1000 to 30000 | CN(CC1CCN(c2cc(N3CCC[C@H]3C(=O)NCCc3ccc(C#N)cc3)nc(C(F)(F)F)n2)CC1)C(=O)OC(C)(C)C [Compound 20] |
| 100 to 999 | 100 to 999 | N#Cc1ccc(CCNC(=O)[C@@H]2CCCN2c2cc(-c3ccc(OC(F)(F)F)cc3)nc(C(F)(F)F)n2)cc1 [Compound 150, (S)-N-(4-cyanophenethyl)-1-(6-(4-(trifluoromethoxy)phenyl)-2-(trifluoromethyl)pyrimidin-4-yl)pyrrolidine-2-carboxamide] |
| 100 to 999 | 100 to 999 | N#Cc1ccc(CCNC(=O)[C@@H]2CCCN(c3cc(N4CCN(CCO)CC4)nc(C(F)(F)F)n3)C2)cc1 [Compound 313, (R)-N-(4-cyanophenethyl)-1-(6-(4-(2-hydroxyethyl)piperazin-1-yl)-2-(trifluoromethyl)pyrimidin-4-yl)piperidine-3-carboxamide] |
| 1000 to 30000 | 100 to 999 | CC(=O)NCCNc1cc(N2CCC[C@@H](C(=O)NCCc3ccc(C(F)(F)F)cc3)C2)nc(C(F)(F)F)n1 [Compound 324, (R)-1-(6-((2-acetamidoethyl)amino)-2-(trifluoromethyl)pyrimidin-4-yl)-N-(4-(trifluoromethyl)phenethyl)piperidine-3-carboxamide] |
| 100 to 999 | 100 to 999 | N#Cc1ccc(CCNC(=O)[C@@H]2CCN2c2cc(-c3ccncc3)nc(C(F)(F)F)n2)cc1 [Compound 303] |
